Measured values published in PMC8793051 (ACS Omega, 2022).

Assays:
[1] = tested on: oligo-1: d(CGCGAATTCGCG)2; assay: Fluorescence titration; format: binding; settings: 20 °C, pH 7.2
[2] = tested on: oligo-2: d(CGATGTACATCG)2; assay: Fluorescence titration; format: binding; settings: 20 °C, pH 7.2
NIH3T3 = assay: MTT cytotoxicity assay; format: cell-based; settings: Mus musculus, NIH3T3, 48 h
RPMI-8226 = assay: NCI-60 SRB growth assay; format: cell-based, human; settings: RPMI-8226
SR = assay: NCI-60 SRB growth assay; format: cell-based, human
HOP-92 = assay: NCI-60 SRB growth assay; format: cell-based, human
NCI-H460 = assay: NCI-60 SRB growth assay; format: cell-based, human
COLO 205 = assay: NCI-60 SRB growth assay; format: cell-based, human; settings: COLO 205
HT29 = assay: NCI-60 SRB growth assay; format: cell-based, human
SF-268 = assay: NCI-60 SRB growth assay; format: cell-based, human
SNB-75 = assay: NCI-60 SRB growth assay; format: cell-based, human
MDA-MB-435 = assay: NCI-60 SRB growth assay; format: cell-based, human
SK-MEL-2 = assay: NCI-60 SRB growth assay; format: cell-based, human
SK-MEL-28 = assay: NCI-60 SRB growth assay; format: cell-based, human
SK-MEL-5 = assay: NCI-60 SRB growth assay; format: cell-based, human
UACC-257 = assay: NCI-60 SRB growth assay; format: cell-based, human
OVCAR-4 = assay: NCI-60 SRB growth assay; format: cell-based, human
OVCAR-8 = assay: NCI-60 SRB growth assay; format: cell-based, human; settings: OVCAR-8
NCI/ADR-RES = assay: NCI-60 SRB growth assay; format: cell-based, human
CAKI-1 = assay: NCI-60 SRB growth assay; format: cell-based, human
UO-31 = assay: NCI-60 SRB growth assay; format: cell-based, human
DU-145 = assay: NCI-60 SRB growth assay; format: cell-based, human
MCF7 = assay: NCI-60 SRB growth assay; format: cell-based, human
MDA-MB-231/ATCC = assay: NCI-60 SRB growth assay; format: cell-based, human
T-47D = assay: NCI-60 SRB growth assay; format: cell-based, human
Hu Topo I = molecular target: T1, Hu Topo I (Homo sapiens, UniProt P11387); assay: Plasmid DNA relaxation assay
T1 sequence (P11387 1-765): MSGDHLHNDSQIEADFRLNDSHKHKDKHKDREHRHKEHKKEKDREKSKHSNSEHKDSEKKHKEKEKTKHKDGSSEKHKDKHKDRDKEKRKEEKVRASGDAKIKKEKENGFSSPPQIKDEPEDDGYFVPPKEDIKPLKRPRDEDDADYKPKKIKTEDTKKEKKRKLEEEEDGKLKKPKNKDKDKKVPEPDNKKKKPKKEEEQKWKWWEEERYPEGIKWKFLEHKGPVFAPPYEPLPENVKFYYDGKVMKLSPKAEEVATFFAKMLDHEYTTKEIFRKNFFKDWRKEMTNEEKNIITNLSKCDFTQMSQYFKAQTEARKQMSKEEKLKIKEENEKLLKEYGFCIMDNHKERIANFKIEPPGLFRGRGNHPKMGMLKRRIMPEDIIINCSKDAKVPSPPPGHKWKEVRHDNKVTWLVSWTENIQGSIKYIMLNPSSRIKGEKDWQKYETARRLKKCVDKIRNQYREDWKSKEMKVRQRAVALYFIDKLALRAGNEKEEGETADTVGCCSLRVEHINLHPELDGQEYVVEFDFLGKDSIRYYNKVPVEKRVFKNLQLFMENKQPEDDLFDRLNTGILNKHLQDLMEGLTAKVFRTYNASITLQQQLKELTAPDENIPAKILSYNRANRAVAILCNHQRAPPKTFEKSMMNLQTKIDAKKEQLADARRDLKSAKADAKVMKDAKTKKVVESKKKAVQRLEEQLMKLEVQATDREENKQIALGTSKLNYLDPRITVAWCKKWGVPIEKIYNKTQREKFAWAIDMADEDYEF

**Q.** How did the “Ka binding affinity with oligo-1” value [1] turn out when `CCCCN1CCN(c2ccc3[nH]c(-c4ccc5[nH]c(-c6ccc(C(F)(F)F)cc6)nc5c4)nc3c2)CC1` [12b, 5-(5-(4-Butylpiperazin-1-yl)-1H-benzo[d]imidazol-2-yl)2(4(trifluoromethyl)phenyl)-1H-benzo[d]imidazole] was run?
**A.** 1 × 10^7 M^–1

**Q.** What about the “Ka binding affinity with oligo-2” value [2] of the same compound?
**A.** 2 × 10^6 M^1

**Q.** And the IC50 (NIH3T3)?
**A.** 3200 nM

**Q.** What about the GI50 (RPMI-8226; Homo sapiens) of the same compound?
**A.** 250 nM

**Q.** What about the TGI (RPMI-8226) of the same compound?
**A.** 620 nM

**Q.** What about the TGI (SR) of the same compound?
**A.** 650 nM

**Q.** And the GI50 (SR; Homo sapiens)?
**A.** 260 nM

**Q.** And the TGI (HOP-92; HOP-92)?
**A.** 2780 nM

**Q.** And the GI50 (HOP-92; Homo sapiens, HOP-92)?
**A.** 1180 nM

**Q.** And the CC50 (HOP-92; Homo sapiens, HOP-92, read-out: LC50)?
**A.** 6500 nM

**Q.** What about the GI50 (NCI-H460; Homo sapiens, NCI-H460) of the same compound?
**A.** 230 nM

**Q.** And the CC50 (NCI-H460; Homo sapiens, NCI-H460, read-out: LC50)?
**A.** 1620 nM

**Q.** And the TGI (NCI-H460; NCI–H460)?
**A.** 500 nM

**Q.** And the TGI (COLO 205)?
**A.** 3100 nM

**Q.** And the GI50 (COLO 205; Homo sapiens)?
**A.** 1300 nM

**Q.** What about the TGI (HT29; HT29) of the same compound?
**A.** 1420 nM

**Q.** What about the GI50 (HT29; Homo sapiens, HT-29) of the same compound?
**A.** 340 nM

**Q.** What about the GI50 (SF-268; Homo sapiens, SF-268) of the same compound?
**A.** 1700 nM

**Q.** And the CC50 (SF-268; Homo sapiens, SF-268, read-out: LC50)?
**A.** 6400 nM

**Q.** What about the TGI (SF-268; SF-268) of the same compound?
**A.** 3300 nM

**Q.** What about the GI50 (SNB-75; Homo sapiens, SNB-75) of the same compound?
**A.** 1050 nM

**Q.** And the CC50 (SNB-75; Homo sapiens, SNB-75, read-out: LC50)?
**A.** 4800 nM

**Q.** And the TGI (SNB-75; SNB-75)?
**A.** 2250 nM

**Q.** What about the GI50 (MDA-MB-435; Homo sapiens, MDA-MB-435) of the same compound?
**A.** 1400 nM

**Q.** What about the CC50 (MDA-MB-435; Homo sapiens, MDA-MB-435, read-out: LC50) of the same compound?
**A.** 5500 nM

**Q.** What about the TGI (MDA-MB-435; MDA-MB-435) of the same compound?
**A.** 2800 nM

**Q.** And the GI50 (SK-MEL-2; Homo sapiens, SK-MEL-2)?
**A.** 1800 nM

**Q.** What about the CC50 (SK-MEL-2; Homo sapiens, SK-MEL-2, read-out: LC50) of the same compound?
**A.** 6300 nM

**Q.** And the TGI (SK-MEL-2; SK-MEL-2)?
**A.** 3300 nM

**Q.** What about the GI50 (SK-MEL-28; Homo sapiens, SK-MEL-28) of the same compound?
**A.** 1700 nM

**Q.** And the CC50 (SK-MEL-28; Homo sapiens, SK-MEL-28, read-out: LC50)?
**A.** 5900 nM

**Q.** What about the TGI (SK-MEL-28; SK-MEL-28) of the same compound?
**A.** 3100 nM

**Q.** What about the GI50 (SK-MEL-5; Homo sapiens, SK-MEL-5) of the same compound?
**A.** 1600 nM

**Q.** And the CC50 (SK-MEL-5; Homo sapiens, SK-MEL-5, read-out: LC50)?
**A.** 6200 nM

**Q.** What about the TGI (SK-MEL-5; SK-MEL-5) of the same compound?
**A.** 3200 nM

**Q.** And the GI50 (UACC-257; Homo sapiens, UACC-257)?
**A.** 1700 nM

**Q.** What about the CC50 (UACC-257; Homo sapiens, UACC-257, read-out: LC50) of the same compound?
**A.** 7200 nM

**Q.** What about the TGI (UACC-257; UACC-257) of the same compound?
**A.** 3500 nM

**Q.** What about the GI50 (OVCAR-4; Homo sapiens, OVCAR-4) of the same compound?
**A.** 600 nM

**Q.** What about the CC50 (OVCAR-4; Homo sapiens, OVCAR-4, read-out: LC50) of the same compound?
**A.** 5200 nM

**Q.** And the TGI (OVCAR-4; OVCAR-4)?
**A.** 1800 nM

**Q.** And the GI50 (OVCAR-8; Homo sapiens)?
**A.** 1100 nM

**Q.** What about the TGI (OVCAR-8) of the same compound?
**A.** 2800 nM

**Q.** What about the TGI (NCI/ADR-RES) of the same compound?
**A.** 57700 nM

**Q.** And the GI50 (NCI/ADR-RES; Homo sapiens)?
**A.** 2100 nM

**Q.** And the CC50 (NCI/ADR-RES; Homo sapiens, read-out: LC50)?
**A.** > 100000 nM

**Q.** And the TGI (CAKI-1; CAKI-1)?
**A.** 2580 nM

**Q.** What about the GI50 (CAKI-1; Homo sapiens, CAKI-1) of the same compound?
**A.** 1290 nM

**Q.** And the CC50 (CAKI-1; Homo sapiens, CAKI-1, read-out: LC50)?
**A.** 5150 nM

**Q.** And the GI50 (UO-31; Homo sapiens, UO-31)?
**A.** 1770 nM

**Q.** What about the CC50 (UO-31; Homo sapiens, UO-31, read-out: LC50) of the same compound?
**A.** 5900 nM

**Q.** What about the TGI (UO-31; UO-31) of the same compound?
**A.** 3240 nM

**Q.** And the TGI (DU-145; DU-145)?
**A.** 1680 nM

**Q.** And the GI50 (DU-145; Homo sapiens, DU-145)?
**A.** 450 nM

**Q.** What about the CC50 (DU-145; Homo sapiens, DU-145, read-out: LC50) of the same compound?
**A.** 4300 nM

**Q.** And the TGI (MCF7)?
**A.** 570 nM

**Q.** What about the GI50 (MCF7; Homo sapiens) of the same compound?
**A.** 170 nM

**Q.** What about the GI50 (MDA-MB-231/ATCC; Homo sapiens, MDA-MB-231) of the same compound?
**A.** 1460 nM

**Q.** What about the CC50 (MDA-MB-231/ATCC; Homo sapiens, MDA-MB-231, read-out: LC50) of the same compound?
**A.** 5840 nM

**Q.** What about the TGI (MDA-MB-231/ATCC; MDA-MB-231) of the same compound?
**A.** 2920 nM

**Q.** What about the GI50 (T-47D; Homo sapiens, T47D) of the same compound?
**A.** 1240 nM

**Q.** What about the TGI (T-47D; T-47D) of the same compound?
**A.** 3230 nM

**Q.** What about the IC50 (Hu Topo I) of the same compound?
**A.** 16000 nM
